The results in this text go back to ChEMBL document CHEMBL1154010, “Aziridine alkaloids as potential therapeutic agents” (Eur J Med Chem, 2009).

For test [1], the target named is Fumarate hydratase, mitochondrial (Sus scrofa, UniProt P10173). Briefly: Inhibition of pig heart fumarase.
For another test, the target named is Aspartase (Escherichia coli, UniProt Q59388). Description: Inhibition of Escherichia coli aspartase.
For another test, the system named is HL-60. Briefly: Cytotoxicity against human HL60 cells. It is filed as functional, cell-based.
The test system of a further test is L1210. Briefly: Cytotoxicity against mouse L1210 cells. The test is classed as functional, cell-based.
The subject of a further test is HCT-116. Briefly: Cytotoxicity against human HCT116 cells. It is filed as functional, cell-based.
In the next test the test system is L5178Y. Description: Cytotoxicity against mouse L5178Y cells. The test is classed as functional, cell-based.
Test [2] is described as follows: Antitumor activity against mouse mammary cancer cell implanted in C3H/An mouse assessed as inhibition of tumor growth at 0.5 mg/day for 14 days. It is filed as functional, Cancer cell lines.
A further test concerns CCRF S-180. Description: Antitumor activity against mouse S180 cells xenografted in rat. It is filed as functional.
Test [3] can be described thus: Antitumor activity against mouse EAC cells xenografted in rat. It is filed as functional, Ehrlich.

Sequence of Aspartase (Q59388 whole entry): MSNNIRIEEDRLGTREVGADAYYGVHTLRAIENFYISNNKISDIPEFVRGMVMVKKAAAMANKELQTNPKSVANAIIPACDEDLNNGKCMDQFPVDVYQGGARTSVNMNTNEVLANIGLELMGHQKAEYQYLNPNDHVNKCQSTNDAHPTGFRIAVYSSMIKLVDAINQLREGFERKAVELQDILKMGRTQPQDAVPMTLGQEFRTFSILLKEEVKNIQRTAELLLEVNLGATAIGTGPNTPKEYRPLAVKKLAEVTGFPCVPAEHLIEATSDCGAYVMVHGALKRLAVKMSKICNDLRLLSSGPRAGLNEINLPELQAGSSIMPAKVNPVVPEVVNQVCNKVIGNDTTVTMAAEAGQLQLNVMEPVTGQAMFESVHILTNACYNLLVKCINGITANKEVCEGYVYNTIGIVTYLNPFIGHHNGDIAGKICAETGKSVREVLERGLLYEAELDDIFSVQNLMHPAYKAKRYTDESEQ
Sequence of Fumarate hydratase, mitochondrial (P10173 whole entry): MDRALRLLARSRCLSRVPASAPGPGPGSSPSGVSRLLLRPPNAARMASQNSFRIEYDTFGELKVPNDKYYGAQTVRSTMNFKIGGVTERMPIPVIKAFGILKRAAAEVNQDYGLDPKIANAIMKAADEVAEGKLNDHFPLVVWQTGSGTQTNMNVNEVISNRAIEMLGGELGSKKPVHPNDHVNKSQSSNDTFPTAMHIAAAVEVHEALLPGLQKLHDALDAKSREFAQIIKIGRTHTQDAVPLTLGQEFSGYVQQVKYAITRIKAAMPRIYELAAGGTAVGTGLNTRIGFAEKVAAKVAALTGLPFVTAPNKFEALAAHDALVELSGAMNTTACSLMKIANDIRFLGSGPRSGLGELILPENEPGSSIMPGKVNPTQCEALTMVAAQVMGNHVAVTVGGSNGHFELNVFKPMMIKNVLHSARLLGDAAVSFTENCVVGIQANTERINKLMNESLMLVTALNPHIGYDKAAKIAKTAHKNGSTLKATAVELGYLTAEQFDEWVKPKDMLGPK

For `O=C(O)[C@H]1N[C@@H]1C(=O)O`, the values for the inhibition constant (Ki) (in test [1]; on Aspartase) were 80 nM and 55000 nM, respectively.
On to `NCCCCNCCCN1CC1`, for which the IC50 (commonly the concentration needed to halve the response being measured) worked out at 110 nM in the test with HL-60 and 150 nM in the test with L1210.
In the same order, the values of `NCCCNCCCCN1CC1` are 300 nM and 310 nM.
With `CC(=O)O[C@H]1C(=O)[C@@]2(C)C([C@H](OC(=O)c3ccccc3)[C@]3(O)C[C@H](OC(=O)[C@@H](O)[C@H](CC(=O)OC(C)(C)C)c4ccco4)C(C)=C1C3(C)C)[C@]1(OC(=O)N3CC3)CO[C@@H]1C[C@@H]2O` (stereo partly specified), the IC50 in the test with HCT-116 is 2 nM.
In the test with L5178Y, `Nc1nc(=O)c2c(CNC(=O)N3CC3)c[nH]c2[nH]1` returned an IC50 of 9 µg/mL.
Regarding `COC(=O)[C@H]1N=C1/C=C/CCCCCCCCCC=C(Br)Br`, the half-inhibitory concentration (IC50) in the test with HCT-116 was 19600 nM. This lies in the double-digit micromolar range.
For `CC(=O)[C@H]1C(N2CC2)C[C@H]2[C@@H]3CCC4=CC(=O)CC[C@]4(C)[C@H]3CC[C@]12C` (stereo partly specified), the “inhibition (INH)” value in test [2] was 55%.
`CC(=O)NC1CCn2c1nc1c2CC(C)=C(N2CC2)C1=O` (stereo unspecified) displayed a half-inhibitory concentration (IC50) in the test with L5178Y of 4000 nM.
In turn, `CC(=O)O[C@H]1C(=O)[C@@]2(C)C([C@H](OC(=O)c3ccccc3)[C@]3(O)C[C@H](OC(=O)[C@@H](O)[C@H](CC(=O)c4ccccc4)c4ccco4)C(C)=C1C3(C)C)[C@]1(OC(=O)N3CC3)CO[C@@H]1C[C@@H]2O` (stereo partly specified) came in with an IC50 in the test with HCT-116 of 6.9 nM.
The same measure, in the same setting: as for `COC(=O)[C@@H]1N=C1/C=C/CCCCCCCCC/C=C(/Cl)Br`, the figure is 15200 nM.
As for `COc1ccc2c(c1)CC[C@@H]1[C@@H]2CC[C@]2(C)C(=O)C(N3CC3)C[C@@H]12` (stereo partly specified), in [2], the “inhibition (INH)” value turned out to be 17%.
As for `COC(=O)[C@H]1N=C1/C=C/CCCCCCCCCC=C(Cl)Cl`, in the test with HCT-116, 24800 nM corresponded to half-maximal inhibition (IC50).
With `CC(=O)O[C@H]1CC[C@@]2(C)C(=CC[C@@H]3[C@@H]2CC[C@]2(C)C(=O)C(CN4CC4)C[C@@H]32)C1` (stereo partly specified), the “inhibition (INH)” value in test [2] is on record as 32%.
With `CC1(C)CC(CCC(=O)ONP(=O)(N2CC2(C)C)N2CC2(C)C)CC(C)(C)N1O` (stereo unspecified), the Activity in the test on CCRF S-180 is listed as 93%; in test [3], 90%.
`CC(=O)[C@H]1C(N2CC2)C[C@H]2[C@@H]3CC=C4C[C@@H](O)CC[C@]4(C)[C@H]3CC[C@]12C` (stereo partly specified): the “inhibition (INH)” value in test [2] worked out at 61%.
`CC(=O)O[C@H]1C(=O)[C@@]2(C)C([C@H](OC(=O)c3ccccc3)[C@]3(O)C[C@H](OC(=O)[C@@H](O)[C@H](NC(=O)c4ccccc4)c4ccccc4)C(C)=C1C3(C)C)[C@]1(OC(=O)N3CC3)CO[C@@H]1C[C@@H]2O` (stereo partly specified) showed a half-maximal inhibitory concentration (IC50) with HCT-116 of 15.6 nM.
In the case of `CC1(C)CC(C(=O)ONP(=O)(N2CC2(C)C)N2CC2(C)C)CC(C)(C)N1O` (stereo unspecified), the Activity in the test with CCRF S-180 worked out at 93%.
